Assay results from the supplement of paper PMC10307832.

Assays:
Assay in all cases: relative viability (nuclei count vs DMSO), 5 days (fraction); higher = more cells survive
[1] = compound: CCC1=CN=CN=C1N2CCN(CC2)CC3=NC4=C(N3)C=C(C=C4)C(F)(F)F + N=C(N)NC(=N)NCCc1ccccc1 [Phenformin] (partner 250 µM)
Procedure, shortened: (§1)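 Cells from lung cancer lines were seeded into 1536-well plates and, one day later, dosed by pin tool. Treatments were either a single drug or a fixed dose of an anchor drug with five library-drug doses (not always all listed) in √10 steps. After 5 days, nuclei were stained in a one-step fixation (final 0.05% Triton X-100, 1% formaldehyde, 1 ug/ml Hoechst) and counted on 4× images, and relative viability is the treated-to-vehicle nuclei ratio, as the median of duplicate plates.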

[2] = compound: CCn1c(-c2nonc2N)nc2cnc(Oc3cccc(NC(=O)c4ccc(OCCN5CCOCC5)cc4)c3)cc21 + CCNC(=O)c1noc(-c2cc(C(C)C)c(O)cc2O)c1-c1ccc(CN2CCOCC2)cc1 [Luminespib] (partner 0.01 µM)
Procedure, shortened: as §1

[3] = compound: CCn1c(-c2nonc2N)nc2cnc(Oc3cccc(NC(=O)c4ccc(OCCN5CCOCC5)cc4)c3)cc21 + C[C@@H](Oc1cc(-c2cnn(C3CCNCC3)c2)cnc1N)c1c(Cl)ccc(F)c1Cl [Crizotinib] (partner 1 µM)
Procedure, shortened: as §1

Mirin + Lapatinib = compound: N=C1NC(=O)/C(=C/c2ccc(O)cc2)S1 [Mirin] + CS(=O)(=O)CCNCc1ccc(-c2ccc3ncnc(Nc4ccc(OCc5cccc(F)c5)c(Cl)c4)c3c2)o1 [Lapatinib] (partner 2 µM)
Procedure, shortened: as §1

Cell Line | relative viability ([1]; first compound 0.04 µM) | relative viability ([1]; first compound 0.1265 µM) | relative viability ([1]; first compound 0.4 µM) | relative viability ([1]; first compound 1.265 µM) | relative viability ([1]; first compound 4 µM) | relative viability ([2]; first compound 0.04 µM) | relative viability ([2]; first compound 0.1265 µM) | relative viability ([2]; first compound 0.4 µM) | relative viability ([2]; first compound 1.265 µM) | relative viability ([2]; first compound 4 µM) | relative viability ([3]; first compound 0.04 µM) | relative viability ([3]; first compound 0.1265 µM) | relative viability ([3]; first compound 0.4 µM) | relative viability ([3]; first compound 1.265 µM) | relative viability ([3]; first compound 4 µM) | relative viability (Mirin + Lapatinib; first compound 0.25 µM) | relative viability (Mirin + Lapatinib; first compound 2.5 µM) | relative viability (Mirin + Lapatinib; first compound 7.906 µM) | relative viability (Mirin + Lapatinib; first compound 25 µM) | relative viability (Mirin + Lapatinib; first compound 0.7906 µM)
LOU-NH91 | 0.605 | 0.692 | 0.685 | 0.669 | 0.714 | 0.367 | 0.328 | 0.331 | 0.271 | 0.248 | 0.756 | 0.534 | 0.637 | 0.488 | 0.497 | 0.786 | 0.782 | 0.774 | 0.702 | 
LU99A | 0.858 | 0.795 | 0.808 | 0.634 | 0.942 | 0.264 | 0.221 | 0.286 | 0.26 | 0.249 | 0.581 | 0.64 | 0.528 | 0.636 | 0.424 | 1.05 | 0.888 | 0.809 | 0.749 | 0.79
LXF-289 | 0.54 | 0.461 | 0.547 | 0.483 | 0.529 | 0.791 | 0.638 | 0.798 | 0.701 | 0.654 | 0.839 | 0.871 | 0.821 | 0.598 | 0.549 | 0.906 | 0.91 | 1.04 | 1.04 | 1.01
NCI-H441 | 0.699 | 0.874 | 0.718 | 0.868 | 0.833 | 0.333 | 0.342 |  | 0.326 | 0.416 | 1.02 | 0.659 | 0.606 | 0.479 | 0.431 |  |  |  |  | 
NCI-H522 | 0.628 | 0.583 | 0.571 | 0.64 | 0.601 | 1.04 | 1.27 | 0.853 | 0.797 | 0.767 |  |  |  |  |  |  |  |  |  | 
NCI-H1299 |  |  |  |  |  |  |  |  |  |  | 0.961 | 0.878 | 0.768 | 0.71 | 0.473 | 0.984 | 0.977 | 1.01 | 1.12 | 0.973
NCI-H1395 | 0.41 | 0.436 | 0.444 | 0.415 | 0.458 | 0.674 | 0.849 | 0.538 | 0.384 | 0.449 |  |  |  |  |  | 0.947 | 1.08 | 0.934 | 0.853 | 
NCI-H1623 | 0.58 | 0.543 | 0.604 | 0.525 | 0.62 | 0.527 | 0.555 | 0.509 | 0.49 | 0.706 |  |  |  |  |  |  |  |  |  | 
NCI-H1703 |  |  |  |  |  |  |  |  |  |  | 0.641 | 0.799 | 0.484 | 0.426 | 0.205 | 1.11 | 1.29 | 0.768 | 0.826 | 1.23
NCI-H1793 | 0.359 | 0.354 | 0.292 |  | 0.253 | 0.217 | 0.22 | 0.159 | 0.18 | 0.237 |  |  |  |  |  | 0.899 | 0.914 | 0.881 | 0.652 | 0.413
NCI-H2342 | 0.579 | 0.477 | 0.611 | 0.429 | 0.547 | 0.763 | 0.847 | 0.715 | 0.665 | 0.785 |  |  |  |  |  |  |  |  |  | 
SW 900 | 0.571 | 0.555 | 0.648 | 0.551 | 0.832 | 0.178 | 0.197 | 0.178 | 0.154 | 0.174 |  |  |  |  |  |  |  |  |  | 
